Source: US20190083498A1, “THERAPIES FOR HEMATOLOGIC MALIGNANCIES” (GILEAD CALISTOGA LLC, priority 2008, published 2019)
Several values for one entry are separate records, joined by “and”; a condition that tells them apart may be missing. Equal entries are not always repeated.

Legend:
MCL cell lines = experiment: Survival factor signaling (pAkt) in MCL cell lines; type: cell-based
phospho-Akt(Ser473) = experiment: Constitutive Akt phosphorylation in leukemia and lymphoma cell lines, immunoblot; type: cell-based
Experimental: A large panel of leukemia and lymphoma cell lines was assessed for constitutive Akt phosphorylation. These cell lines represent B-lymphoma, T-lymphoma, ALL, Malignant histiocytosis, DLBCL and AML. […] Thereafter, cell were lysed, size-fractioned and immunoblotted with antibodies directed against phospho-Akt(Ser473).
The PI3K pathway is frequently deregulated in leukemia and lymphoma cell lines. […] In addition, PI3K pathway activation is dependent on p110δ.

[1] = tested on: patient chronic lymphocytic leukemia (CLL) cells; experiment: Apoptosis of patient CLL cells, Annexin V-FITC/PI flow cytometry; type: cell-based, human
Experimental: Peripheral blood was obtained from patients with B-CLL through the CLL Research Consortium from Ohio State University. Primary CD19-positive cells were isolated using Rosette-Sep (StemCell Technologies). Cells were maintained in RPMI 1640 (Invitrogen) supplemented with 10% heat-inactivated fetal bovine serum, 2 mmol/L L-glutamine, and penicillin (100 units/mL)/streptomycin (100 μg/mL; Invitrogen) at 37° C., 5% CO2, and high humidity. After incubation with the compound of formula I or medium for 96 hours, 5×10^5 cells were washed with PBS and then resuspended in binding buffer (10 mmol/L HEPES/NaOH, pH 7.4, 150 mmol/L NaCl 5 mmol/L KCl, 1 mmol/L MgCl2, 1.8 mmol/L CaCl2) containing 2 μL of Annexin V-FITC stock (BioWhittaker, Inc) and 10 μL of 20 μg/mL PI (Sigma). After incubation for 10 minutes at room temperature in a light-protected area, the specimens were quantified by flow cytometry on a FACScan™ (Becton Dickinson).

FL cell lines = experiment: PI3K signaling and apoptosis in follicular lymphoma cell lines; type: cell-based
over 350 protein kinases = experiment: Ambit KINOMEscan kinome-wide protein kinase screen; type: binding; conditions: 10 μM
Text: Examples of some kinases in the screen are shown below in Table 3.

leukemia cell lines = experiment: Apoptosis in leukemia cell lines, Annexin V-FITC/7AAD; type: cell-based; conditions: 1 μM or 10 μM; 24 hrs
Experimental: The percentage of apoptotic cells was determined by Annexin V-FITC/7AAD staining.

[2] = tested on: IGROV-1 and OVCAR-3 cell lines; experiment: Proliferation of ovarian cancer cell lines, AlamarBlue; type: cell-based; conditions: IGROV-1 and OVCAR-3, with serum
Experimental: IGROV-1 and OVCAR-3 cell lines were grown in the presence of serum plus the indicated concentrations of the compound of formula I. Proliferation was measured in triplicate wells by AlamarBlue assay (Invitrogen) 96-well plates.

CLL cells = experiment: BH3 profiling, mitochondrial depolarization (JC-1); type: cell-based, human
Experimental: BH3 profiling: CLL patient peripheral blood, bone marrow, and lymph node samples were analyzed by either the plate-based fluorimetry or FACS method. Briefly, PBMCs from CLL patients were made into single cell suspensions and gently permeabilized using digitonin (0.002%). For the fluorimtery-based method, 100 μM JC-1 (Invitrogen) was added at this time and cells were then loaded onto a 384-well plate, with individual wells containing individual BH3-only peptides. The JC1-BH3 assays were then conducted in triplicate on a Tecan Safire 2 with Ex 545 +/−[…] and Em 590 +/−20 nm with a three-hour time course. For the FACS-based method, single cell suspensions from CLL patient PBMCs were stained using human Fc Block (BD Pharmingen) followed by anti-CD19-V450 (BD Pharmingen) and anti-CXCR4-APC (BD Pharmingen). […] JC-1 was measured from the 488-nm laser using a 530/30-nm filter (FITC) and a 585/42-nm filter (PE), and the degree of mitochondrial depolarization was calculated using the surrogate of the change in the median of PE signal. The mitochondrial depolarization reported in response to each BH3 peptide is normalized relative to the median percentage change in PE fluorescence of the JC-1 dye with a negative control, dimethyl sulfoxide (DMSO) (0%) and a positive control, the mitochondrial uncoupling agent carbonyl cyanide 4-(trifluoromethoxy)- phenylhydrazone (FCCP) (100%).

INA-6 and LB MM cells = experiment: Autophagy: LC3 accumulation, AVO acridine orange staining, LC3/beclin-1 western blot; type: cell-based, human
Text: Samples were examined under a fluorescence microscope.
Autophagosome formation was defined by the accumulation of LC3; arrows indicate autophagosomes, FIG. 33A.
GAPDH served as a loading control.

HuVEC cells = experiment: AKT and ERK1/2 in HuVEC lysates, immunoblotting; type: cell-based, human; conditions: 0-200 μM; 8 h
Text: Actin was used as a loading control.

[3] = tested on: CLL cells on StromaNKTert; experiment: Calcein-based adhesion assay of CLL cells on stroma; type: cell-based, human
Experimental: Calcein-based adhesion assay: a confluent monolayer of CD154+ L or StromaNKTert cells was generated by plating 1×10^4 cells/well in 96-well plates for 24 hours. Single cell suspensions of CLL cells at 0.5×10^6 cells/ml were then labeled with 1 μg/mL Calcein-AM (Invitrogen) for 1 hour. Cells were then spun down and treated with compound or vehicle for 1 to 24 hours. Non-adherent cells were washed off by aspiration. CLL cell adhesion was quantified by fluorimetry (Ex/Em=485/520 nm), and visualized directly using the Nikon TE2000 inverted live-cell imaging system.

LB and INA-6 MM cells = experiment: Growth inhibition of p110δ-positive MM cell lines, MTT; type: cell-based, human; conditions: 48 h
[4] = tested on: HS-578T, T47D, and MCF7 cells; experiment: Apoptosis in breast cancer cell lines, Annexin V-FITC/7AAD; type: cell-based; conditions: 24 h
Experimental: HS-578T, T47D, and MCF7 cells were treated with the compound of formula I or corresponding DMSO concentrations for 24 h. The percentage of apoptotic cells was determined by Annexin V-FITC/7AAD staining Bottom left, viable cells (Annexin V-FITC/[…] negative); bottom right, early apoptotic cells (Annexin V-FITC positive only); top right, mid-late apoptotic cells (Annexin V-FITC/7AAD double-positive); and top left, late apoptotic/necrotic (7AAD positive only). Percentages of cells in each quadrant are indicated except for the bottom left quadrant (viable cells).

## CC[C@H](Nc1ncnc2[nH]cnc12)c1nc2cccc(F)c2c(=O)n1-c1ccccc1 [Compound I, 5-fluoro-3-phenyl-2-[1-(9H-purin-6-ylamino)-propyl]-3H-quinazolin-4-one]
MCL cell lines
  pAkt in MCL lines exposed to survival factors: significant reduction of pAkt
phospho-Akt(Ser473); 10 μM, 2 hrs, including B-cell and T-cell lymphomas
  cell lines in which constitutive AKT phosphorylation was inhibited (FIG. 9): 11 out of 11
phospho-Akt(Ser473); hematopoietic tumor cell lines, 2 hours
  constitutive Akt(Ser473) phosphorylation: Reduction in Akt(Ser473) was achieved for all cell lines
phospho-Akt(Ser473); leukemia and lymphoma cell lines with constitutive p-AKT
  cell lines in which constitutive AKT phosphorylation was inhibited: 13 of 13 and 13 out of 13
[1]
  apoptosis of CLL cells from poor prognosis patients: induced apoptosis was seen
  apoptosis of CLL cells from refractory/relapsed patients: induced apoptosis was also seen to be effective
[1]; 96 hours
  apoptosis of CLL patient cells: results in apoptosis
FL cell lines; certain cell lines
  pAkt, Akt, pS6 and S6 in FL cell lines: reduction in the production of pAkt, Akt, pS6 and S6
FL cell lines; dose dependent, 24 hours, 0.1 μM and 0.5 μM
  cleavage of PARP and Caspase-3 in FL cell lines: Cleavage of PARP and Caspase-3 is observed
Over 350 protein kinases
  off target activity in kinome-wide protein kinase screen: failed to detect any activity
Over 350 protein kinases; listed as compound of formula I
  off target activity in kinome-wide protein kinase screen: little activity
Leukemia cell lines
  apoptosis in leukemia cell lines: induces apoptosis
[2]
  proliferation of ovarian cancer cell lines: inhibits proliferation
CLL cells; 24 hours, p=0.075
  mitochondrial priming of stroma-exposed CLL cells: increased mitochondrial priming
CLL cells; p=0.046 and p=0.047
  mitochondrial depolarization induced by BAD BH3 peptide and ABT-737 in treated CLL cells: significantly more mitochondrial depolarization
INA-6 and LB MM cells; 5 μM, 6 h, INA-6 and LB cells
  LC3 staining (immunofluorescence): markedly increased LC 3 staining
INA-6 and LB MM cells; INA-6, 6 h
  LC3-II and Beclin1 protein: markedly increased
INA-6 and LB MM cells; LB and INA-6 cells
  acidic vesicular organelles (acridine orange staining): development of AVOs
HuVEC cells
  phosphorylation and expression of AKT and ERK1/2: markedly down regulated
[3]
  CLL cell adherence to stroma after one hour: reduced adherence
[3]; 10 μM
  CLL cell adherence to stroma at 24 hours: less adherent
LB and INA-6 MM cells
  cytotoxicity against p110δ-positive MM cells: induced cytotoxicity
[4]
  apoptosis in breast cancer cell lines: induces apoptosis
